Patent US9056835B2, “LPA2 receptor-specific benzoic acid derivatives” (University of Tennessee Research Foundation, priority 2012, dated 2015)

Assays:
[1] = molecular target: T1, LPA1 (Homo sapiens, UniProt Q92633); assay: LPA receptor-mediated Ca2+ mobilization assay, LPA1; assay type: cell-based; details: for EC50: agonist, Ca2+ mobilization; for inhibition of LPA1 Ca2+ response: 10 μM, ~EC75 LPA 18:1; for LPA1 Imax (%): inhibition by 10 μM compound of ~EC75 LPA 18:1 Ca2+ response
T1 construct: expressed in transfected cells
T1 sequence (Q92633 whole entry, species assumed): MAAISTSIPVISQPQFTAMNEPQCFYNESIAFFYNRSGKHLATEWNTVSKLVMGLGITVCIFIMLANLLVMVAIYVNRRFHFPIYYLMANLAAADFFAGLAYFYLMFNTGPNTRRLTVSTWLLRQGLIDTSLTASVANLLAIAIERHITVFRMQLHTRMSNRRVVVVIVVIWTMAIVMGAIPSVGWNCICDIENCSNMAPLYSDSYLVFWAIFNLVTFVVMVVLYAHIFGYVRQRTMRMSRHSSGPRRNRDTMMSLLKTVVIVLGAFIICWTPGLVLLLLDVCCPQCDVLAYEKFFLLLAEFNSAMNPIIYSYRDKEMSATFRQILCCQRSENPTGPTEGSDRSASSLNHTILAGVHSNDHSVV
Procedure: (§1) Similarity searches were performed separately using each fingerprint to quantitate similarity. Hits meeting the 80% similarity threshold from each search were ranked based on the Tanimoto coefficient measure of similarity to a target molecule NSC12404, and the top 75 unique hits from each fingerprint search were selected for further analysis. The 225 compounds selected for further analysis were clustered based on Tanimoto coefficients calculated using Molecular ACCess System-key fingerprints (MACCS keys) and evaluated using the diversity subset function implemented in MOE. This selected a diverse subset of 27 compounds for biological evaluation by choosing the middle compounds in each cluster. These 27 compounds were tested in Ca^2+ mobilization assays at a concentration of 10 μM using stable cell lines individually expressing LPA2 and also in vector-transfected control cells. Hits activating LPA2 were further tested using cells expressing the other established and putative LPA GPCRs. Experimental testing of the selected compounds identified the three new selective LPA2 agonists: GRI977143, H2L5547924, and H2L5828102. […] They arbitrarily selected GRI977143 for further characterization in cell-based assays.
(§2) J Biol Chem (2009) 284(25): 17304-17319). […] The cells were loaded with Fura-2-acetoxymethyl esther (Fura-2/AM) in Krebs buffer containing 0.01% pluronic acid for 30 min and rinsed with Krebs buffer before measuring Ca^2+ mobilization. The ratio of peak emissions at 510 nm after 2 min of ligand addition was determined for excitation wavelengths of 340 nm/380 nm. All samples were run in quadruplicate. […] The half maximally effective concentration (EC50), and inhibitory constant (Ki) values were calculated by fitting a sigmoid function to dose-response data points using KaleidaGraph software (version 4.1, Synergy Software; […]).
Mouse embryonic fibroblast (MEF) cells were isolated from E13.5 LPA1&2 double knockout (DKO) embryos. MEFs were transduced with empty vector or LPA2-containing lentiviruses and selected with 1.5 μg/ml puromycin. Cells were maintained in Dulbecco's modified Eagle medium (DMEM) supplemented with 10% (V/V) fetal bovine serum (FBS), 2 mM L-glutamine, 100 U/mL penicillin, and 100 μg/mL streptomycin. Serum-free medium contained 0.1% (W/V) BSA in DMEM. The rat intestinal epithelial cell line 6 (IEC-6) was obtained from the American Type Culture Collection (Rockville, Md.) at passage 13; passages 16-21 were used in all experiments. IEC-6 cells were maintained in a humidified 37° C. incubator in an atmosphere of 90% air and 10% CO2. Growth medium consisted of DMEM supplemented with 5% heat inactivated FBS, 10 μg/mL insulin, and 50 μg/mL gentamycin. The composition of the serum-starvation medium was the same as that of the full growth medium except that it contained no FBS. The McArdle rat hepatoma cell line (RH7777) stably expressing LPA2 receptors was a gift from Dr. Fumikazu Okajima (Gunma University, Maebashi, Japan). RH7777 cells stably expressing LPA1 or LPA3 receptors were generated in-house and had been characterized earlier. Wild type and LPA receptor (LPAR) stably transfected RH7777 cells were grown in DMEM supplemented with 10% FBS and 2 mM L-glutamine in the presence of 250 μg/ml G418. Chinese hamster ovary (CHO) cells stably expressing either vector or LPA4 receptor were a kind gift from Dr. Takao Shimizu (Tokyo University; Tokyo, Japan). Cells were cultured in Ham's F12 medium containing 10% FBS, 2 mM L-glutamine, and 350 μg/ml G418. Rat neuroblastoma cells (B103) were transduced with the lentivirus harboring wild type of FLAG-LPA5 and selected with puromycin to establish the stable cell lines. The stable cells were maintained in DMEM supplemented with 10% FBS and 0.4 μg/ml puromycin. GPR87- and P2Y10-expressing CHO cells and vector-transfected control cells were a gift from Dr. Norihisha Fujita (Ritsumeikan University; Shiga, Japan). […]

[2] = molecular target: T2, LPA4 (Homo sapiens, UniProt Q99677); assay: LPA receptor-mediated Ca2+ mobilization assay, LPA4; assay type: cell-based; details: for EC50: agonist, Ca2+ mobilization
T2 construct: expressed in transfected cells
T2 sequence (Q99677 whole entry, species assumed): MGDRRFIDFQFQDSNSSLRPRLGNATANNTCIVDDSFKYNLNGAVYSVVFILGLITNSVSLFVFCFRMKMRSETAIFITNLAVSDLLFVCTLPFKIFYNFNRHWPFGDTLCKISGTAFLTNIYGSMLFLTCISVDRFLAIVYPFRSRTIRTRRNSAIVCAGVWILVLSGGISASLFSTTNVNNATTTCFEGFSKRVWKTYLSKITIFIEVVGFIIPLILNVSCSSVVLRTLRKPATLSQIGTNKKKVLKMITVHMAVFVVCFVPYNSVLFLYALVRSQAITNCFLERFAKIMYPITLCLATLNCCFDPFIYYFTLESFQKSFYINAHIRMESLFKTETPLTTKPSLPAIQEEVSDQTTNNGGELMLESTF
Procedure: as §1, with “GPCRs.” for “GPCRs. Experimental testing of the selected compounds identified the three new selective LPA2 agonists: GRI977143, H2L5547924, and H2L5828102.”
as §2
Mouse embryonic fibroblast (MEF) cells were isolated from E13.5 LPA1&2 double knockout (DKO) embryos. MEFs were transduced with empty vector or LPA2-containing lentiviruses and selected with 1.5 μg/ml puromycin. Cells were maintained in Dulbecco's modified Eagle medium (DMEM) supplemented with 10% (V/V) fetal bovine serum (FBS), 2 mM L-glutamine, 100 U/mL penicillin, and 100 μg/mL streptomycin. Serum-free medium contained 0.1% (W/V) BSA in DMEM. The rat intestinal epithelial cell line 6 (IEC-6) was obtained from the American Type Culture Collection (Rockville, Md.) at passage 13; passages 16-21 were used in all experiments. IEC-6 cells were maintained in a humidified 37° C. incubator in an atmosphere of 90% air and 10% CO2. Growth medium consisted of DMEM supplemented with 5% heat inactivated FBS, 10 μg/mL insulin, and 50 μg/mL gentamycin. The composition of the serum-starvation medium was the same as that of the full growth medium except that it contained no FBS. The McArdle rat hepatoma cell line (RH7777) stably expressing LPA2 receptors was a gift from Dr. Fumikazu Okajima (Gunma University, Maebashi, Japan). RH7777 cells stably expressing LPA1 or LPA3 receptors were generated in-house and had been characterized earlier. Wild type and LPA receptor (LPAR) stably transfected RH7777 cells were grown in DMEM supplemented with 10% FBS and 2 mM L-glutamine in the presence of 250 μg/ml G418. Chinese hamster ovary (CHO) cells stably expressing either vector or LPA4 receptor were a kind gift from Dr. Takao Shimizu (Tokyo University; Tokyo, Japan). Cells were cultured in Ham's F12 medium containing 10% FBS, 2 mM L-glutamine, and 350 μg/ml G418. Rat neuroblastoma cells (B103) were transduced with the lentivirus harboring wild type of FLAG-LPA5 and selected with puromycin to establish the stable cell lines. The stable cells were maintained in DMEM supplemented with 10% FBS and 0.4 μg/ml puromycin. GPR87- and P2Y10-expressing CHO cells and vector-transfected control cells were a gift from Dr. Norihisha Fujita (Ritsumeikan University; Shiga, Japan).

Row | Compound | EC50 [1] [µM] | inhibition of LPA4 Ca2+ response ([2]; 10 μM, ~EC75 LPA 18:1) | LPA4 Imax (%) ([2]; inhibition by 10 μM compound of ~EC75 LPA 18:1 Ca2+ response) | inhibition of LPA1 Ca2+ response [1] | LPA1 Imax (%) [1] [%] | EC50 [2] [µM]
1 | CCCCCCCC/C=C\CCCCCCCC(=O)OC[C@@H](O)COP(=O)(O)O [LPA 18:1, Lysophosphatidic acid (18:1)] | 0.13 |  |  |  |  | 
2 | O=C(O)c1cc(Cl)c(Cl)cc1C(=O)Nc1ccc2c(c1)C(=O)c1ccccc1-2 [Compound H2L5547924] |  | partially inhibited | 51 | partially inhibited | 21 | 
3 | O=C(O)c1ccccc1C(=O)Nc1ccc2c(c1)C(=O)c1ccccc1C2=O [Compound H2L5828102] |  |  |  | partially inhibited | 29 | > 10
4 | octadecenyl thiophosphate [OTP] | 0.651 |  |  |  |  | 2
5 | O=C(O)c1ccccc1C(=O)Nc1ccc2c(c1)C(=O)c1ccccc1-2 [NSC12404] | > 10 |  |  |  |  | > 10
6 | O=C(O)c1ccccc1SCCCN1C(=O)c2cccc3cccc(c23)C1=O [GRI977143] |  |  |  |  |  | > 10
